One block for each compound: values may come before it. Calls of active or inactive are those of the source. No cut-off for these calls is given here.
Columns and labels:
HCT-116 [1] = test: Cytotoxicity against human HCT116 cells by MTT assay; format: functional, cell-based
HCT-116 [2] = test: Induction of apoptosis in human HCT116 cells assessed as decrease in expression of BCL-2 by Western blotting; format: functional, cell-based
HL-60 [3] = test: Induction of apoptosis in human HL60 cells assessed as membrane blebbing at IC50 concentration after 24 to 48 hrs using Hoechst 33342 staining by fluorescence microscope; format: functional, cell-based
HCT-116 [4] = test: Induction of apoptosis in human HCT116 cells assessed as increase in expression of DR5 by Western blotting; format: functional, cell-based
HL-60 [5] = test: Cytotoxicity against human HL60 cells by MTT assay; format: functional, cell-based
[6] = biological target: Mitogen-activated protein kinase; ERK1/ERK2 (Homo sapiens) (UniProt P27361+P28482); test: Activation of ERK1/2 in human HCT116 cells assessed as phosphorylated ERK1/2 level by Western blotting; format: cell-based; details: HCT-116
HCT-116 [7] = test: Induction of apoptosis in human HCT116 cells assessed as chromatin condensation at IC50 concentration after 24 to 48 hrs using Hoechst 33342 staining by fluorescence microscope; format: functional, cell-based
HCT-116 [8] = test: Induction of apoptosis in human HCT116 cells assessed as increase in expression of Bax by Western blotting; format: functional, cell-based
HCT-116 [9] = test: Induction of apoptosis in human HCT116 cells assessed as increase in induction of PARP cleavage by Western blotting; format: functional, cell-based
HCT-116 [10] = test: Induction of apoptosis in human HCT116 cells assessed as increase in caspase-9 activation by Western blotting; format: functional, cell-based
HL-60 [11] = test: Induction of apoptosis in human HL60 cells assessed as cell shrinkage at IC50 concentration after 24 to 48 hrs using Hoechst 33342 staining by fluorescence microscope; format: functional, cell-based
HCT-116 [12] = test: Induction of apoptosis in human HCT116 cells assessed as cell shrinkage at IC50 concentration after 24 to 48 hrs using Hoechst 33342 staining by fluorescence microscope; format: functional, cell-based
HCT-116 [13] = test: Induction of apoptosis in human HCT116 cells assessed as membrane blebbing at IC50 concentration after 24 to 48 hrs using Hoechst 33342 staining by fluorescence microscope; format: functional, cell-based
HL-60 [14] = test: Induction of apoptosis in human HL60 cells assessed as chromatin condensation at IC50 concentration after 24 to 48 hrs using Hoechst 33342 staining by fluorescence microscope; format: functional, cell-based

Sequence of Mitogen-activated protein kinase; ERK1/ERK2 (Homo sapiens) (P27361 whole entry, looked up): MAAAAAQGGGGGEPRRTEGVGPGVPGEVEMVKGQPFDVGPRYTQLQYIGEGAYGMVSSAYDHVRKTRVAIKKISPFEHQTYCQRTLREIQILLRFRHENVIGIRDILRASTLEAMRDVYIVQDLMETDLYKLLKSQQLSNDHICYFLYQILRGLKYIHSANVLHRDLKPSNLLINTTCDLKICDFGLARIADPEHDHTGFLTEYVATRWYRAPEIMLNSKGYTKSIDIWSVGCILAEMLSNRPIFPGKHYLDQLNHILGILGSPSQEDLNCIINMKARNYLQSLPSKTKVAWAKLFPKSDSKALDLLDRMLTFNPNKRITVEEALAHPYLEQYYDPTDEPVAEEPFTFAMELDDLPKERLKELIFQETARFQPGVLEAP
Sequence of Mitogen-activated protein kinase; ERK1/ERK2 (Homo sapiens) (P28482 whole entry, looked up): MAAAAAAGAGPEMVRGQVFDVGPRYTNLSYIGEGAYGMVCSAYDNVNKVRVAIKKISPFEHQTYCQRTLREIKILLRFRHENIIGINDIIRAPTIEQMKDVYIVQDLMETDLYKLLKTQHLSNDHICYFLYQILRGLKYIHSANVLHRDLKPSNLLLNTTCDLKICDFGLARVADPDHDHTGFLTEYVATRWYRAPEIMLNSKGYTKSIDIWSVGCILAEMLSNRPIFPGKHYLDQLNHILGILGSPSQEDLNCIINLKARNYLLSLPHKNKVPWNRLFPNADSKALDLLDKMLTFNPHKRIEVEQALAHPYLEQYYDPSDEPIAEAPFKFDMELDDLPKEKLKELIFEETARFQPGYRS

Activity [6]: Active
Structure (SMILES): COC(=O)[C@H]1O[C@@H](O[C@H]2CC[C@]3(C)[C@H]4CC=C5[C@@H]6CC(C)(C)CC[C@]6(C(=O)O)CC[C@@]5(C)[C@]4(C)CC[C@H]3C2(C)C)[C@H](O)[C@@H](O[C@@H]2O[C@H](CO)[C@@H](O)[C@H](O)[C@H]2O)[C@@H]1O [SPINASAPONIN A METHYL ESTER]
IC50 (HCT-116 [1]): 0.63 µM
Activity (HCT-116 [2]): Active
Activity (HL-60 [3]): Active
Activity (HCT-116 [4]): Active
IC50 (HL-60 [5]): 4.44 µM
Activity (HCT-116 [7]): Active
Activity (HCT-116 [8]): Active
Activity (HCT-116 [9]): Active
Activity (HCT-116 [10]): Active
Activity (HL-60 [11]): Active
Activity (HCT-116 [12]): Active
Activity (HCT-116 [13]): Active
Activity (HL-60 [14]): Active

Structure (SMILES): COC(=O)[C@H]1O[C@@H](O[C@H]2CC[C@]3(C)[C@H]4CC=C5[C@@H]6CC(C)(C)CC[C@]6(C(=O)O[C@@H]6O[C@H](CO)[C@@H](O)[C@H](O)[C@H]6O)CC[C@@]5(C)[C@]4(C)CC[C@H]3C2(C)C)[C@H](O)[C@@H](O)[C@@H]1O[C@H]1O[C@@H](CO)[C@H](O)[C@H]1O [ARALOSIDE A METHYL ESTER]
IC50 (HCT-116 [1]): > 100 µM
IC50 (HL-60 [5]): 63.4 µM

Structure (SMILES): COC(=O)[C@H]1O[C@@H](O[C@H]2CC[C@]3(C)[C@H]4CC=C5[C@@H]6CC(C)(C)CC[C@]6(C(=O)O[C@@H]6O[C@H](CO)[C@@H](O)[C@H](O)[C@H]6O)CC[C@@]5(C)[C@]4(C)CC[C@H]3C2(C)C)[C@H](O)[C@@H](O[C@@H]2O[C@H](CO)[C@@H](O)[C@H](O)[C@H]2O)[C@@H]1O[C@H]1O[C@@H](CO)[C@H](O)[C@H]1O [STIPULEANOSIDE R2 METHYL ESTER]
IC50 (HCT-116 [1]): > 100 µM
IC50 (HL-60 [5]): 67.1 µM

Structure (SMILES): CC1(C)CC[C@]2(C(=O)O)CC[C@]3(C)C(=CC[C@@H]4[C@@]5(C)CC[C@H](O)C(C)(C)[C@@H]5CC[C@]43C)[C@@H]2C1 [OLEANOLIC_ACID]
IC50 (HCT-116 [1]): 4.8 µM
IC50 (HL-60 [5]): 77.5 µM

Activity [6]: Active
Structure (SMILES): COC(=O)[C@H]1O[C@@H](O[C@H]2CC[C@]3(C)[C@H]4CC=C5[C@@H]6CC(C)(C)CC[C@]6(C(=O)O)CC[C@@]5(C)[C@]4(C)CC[C@H]3C2(C)C)[C@H](O[C@H]2OC[C@@H](O)[C@H](O)[C@H]2O)[C@@H](O)[C@@H]1O [PESUDOGINSENOSIDE RP1 METHYL ESTER]
IC50 (HCT-116 [1]): 6.5 µM
Activity (HCT-116 [2]): Active
Activity (HL-60 [3]): Active
Activity (HCT-116 [4]): Active
IC50 (HL-60 [5]): 41.5 µM
Activity (HCT-116 [7]): Active
Activity (HCT-116 [8]): Active
Activity (HCT-116 [9]): Active
Activity (HCT-116 [10]): Active
Activity (HL-60 [11]): Active
Activity (HCT-116 [12]): Active
Activity (HCT-116 [13]): Active
Activity (HL-60 [14]): Active

Structure (SMILES): CC1(C)CC[C@]2(C(=O)O[C@@H]3O[C@H](CO)[C@@H](O)[C@H](O)[C@H]3O)CC[C@]3(C)C(=CC[C@@H]4[C@@]5(C)CC[C@H](O[C@@H]6O[C@H](C(=O)O)[C@@H](O)[C@H](O)[C@H]6O[C@H]6OC[C@@H](O)[C@H](O)[C@H]6O)C(C)(C)[C@@H]5CC[C@]43C)[C@@H]2C1 [PSEUDOGINSENOSIDE RT1]
IC50 (HCT-116 [1]): > 100 µM
IC50 (HL-60 [5]): 91.2 µM

Structure (SMILES): COC(=O)[C@H]1O[C@@H](O[C@H]2CC[C@]3(C)[C@H]4CC=C5[C@@H]6CC(C)(C)CC[C@]6(C(=O)O[C@@H]6O[C@H](CO)[C@@H](O)[C@H](O)[C@H]6O)CC[C@@]5(C)[C@]4(C)CC[C@H]3C2(C)C)[C@H](O[C@H]2OC[C@@H](O)[C@H](O)[C@H]2O)[C@@H](O)[C@@H]1O [PSEUDOGINSENOSIDE RT1 METHYL ESTER]
IC50 (HCT-116 [1]): > 100 µM
IC50 (HL-60 [5]): > 100 µM

Structure (SMILES): CC1(C)CC[C@]2(C(=O)O[C@@H]3O[C@H](CO)[C@@H](O)[C@H](O)[C@H]3O)CC[C@]3(C)C(=CC[C@@H]4[C@@]5(C)CC[C@H](O[C@@H]6O[C@H](C(=O)O)[C@@H](O)[C@H](O[C@@H]7O[C@H](CO)[C@@H](O)[C@H](O)[C@H]7O)[C@H]6O)C(C)(C)[C@@H]5CC[C@]43C)[C@@H]2C1
IC50 (HCT-116 [1]): > 100 µM
IC50 (HL-60 [5]): 73 µM

Structure (SMILES): CC1(C)CC[C@]2(C(=O)O[C@@H]3O[C@H](CO)[C@@H](O)[C@H](O)[C@H]3O)CC[C@]3(C)C(=CC[C@@H]4[C@@]5(C)CC[C@H](O[C@@H]6O[C@H](C(=O)O)[C@@H](O)[C@H](O)[C@H]6O)C(C)(C)[C@@H]5CC[C@]43C)[C@@H]2C1 [CHIKUSETSUSAPONIN IVA]
IC50 (HCT-116 [1]): 78.1 µM
IC50 (HL-60 [5]): 76.2 µM

Structure (SMILES): CC1(C)CC[C@]2(C(=O)O[C@@H]3O[C@H](CO)[C@@H](O)[C@H](O)[C@H]3O)CC[C@]3(C)C(=CC[C@@H]4[C@@]5(C)CC[C@H](O[C@@H]6O[C@H](C(=O)O)[C@@H](O[C@H]7O[C@@H](CO)[C@H](O)[C@H]7O)[C@H](O[C@@H]7O[C@H](CO)[C@@H](O)[C@H](O)[C@H]7O)[C@H]6O)C(C)(C)[C@@H]5CC[C@]43C)[C@@H]2C1 [STIPULEANOSIDE R2]
IC50 (HCT-116 [1]): > 100 µM
IC50 (HL-60 [5]): > 100 µM

Structure (SMILES): COC(=O)[C@H]1O[C@@H](O[C@H]2CC[C@]3(C)[C@H]4CC=C5[C@@H]6CC(C)(C)CC[C@]6(C(=O)O[C@@H]6O[C@H](CO)[C@@H](O)[C@H](O)[C@H]6O)CC[C@@]5(C)[C@]4(C)CC[C@H]3C2(C)C)[C@H](O)[C@@H](O[C@@H]2O[C@H](CO)[C@@H](O)[C@H](O)[C@H]2O)[C@@H]1O
IC50 (HCT-116 [1]): > 100 µM
IC50 (HL-60 [5]): 83.9 µM

Structure (SMILES): CC1(C)CC[C@]2(C(=O)O[C@@H]3O[C@H](CO)[C@@H](O)[C@H](O)[C@H]3O)CC[C@]3(C)C(=CC[C@@H]4[C@@]5(C)CC[C@H](O[C@@H]6O[C@H](CO)[C@@H](O)[C@H](O)[C@H]6O[C@H]6OC[C@@H](O)[C@H](O)[C@H]6O)C(C)(C)[C@@H]5CC[C@]43C)[C@@H]2C1
IC50 (HCT-116 [1]): 75.9 µM
IC50 (HL-60 [5]): > 100 µM

Structure (SMILES): O=C1c2c(O)ccc(O)c2C(=O)c2c(NCCNCCO)ccc(NCCNCCO)c21 [MITOXANTRONE]
IC50 (HCT-116 [1]): 3.96 µM
IC50 (HL-60 [5]): 7.5 µM

Reference: ChEMBL document CHEMBL1287676, “Oleanane-type triterpenoids from Panax stipuleanatus and their anticancer activities” (Bioorg Med Chem Lett, 2010)
